Each compound was assayed against T1, β-glucocerebrosidase (Homo sapiens, UniProt P04062, L483P) (assay: Enhancement of β-glucocerebrosidase activity measured in Gaucher disease fibroblasts (4-MU-β-D-glucopyranoside substrate, intact cells)). Conditions: GBA fibroblasts bearing L444P (GM08760A, homozygous p.L444P); compound at concentrations between 6 and 50 μM; 4 days incubation.
T1 construct: host or cells: human Gaucher disease patient fibroblasts GM08760A
T1 sequence (P04062 40-536 L483P): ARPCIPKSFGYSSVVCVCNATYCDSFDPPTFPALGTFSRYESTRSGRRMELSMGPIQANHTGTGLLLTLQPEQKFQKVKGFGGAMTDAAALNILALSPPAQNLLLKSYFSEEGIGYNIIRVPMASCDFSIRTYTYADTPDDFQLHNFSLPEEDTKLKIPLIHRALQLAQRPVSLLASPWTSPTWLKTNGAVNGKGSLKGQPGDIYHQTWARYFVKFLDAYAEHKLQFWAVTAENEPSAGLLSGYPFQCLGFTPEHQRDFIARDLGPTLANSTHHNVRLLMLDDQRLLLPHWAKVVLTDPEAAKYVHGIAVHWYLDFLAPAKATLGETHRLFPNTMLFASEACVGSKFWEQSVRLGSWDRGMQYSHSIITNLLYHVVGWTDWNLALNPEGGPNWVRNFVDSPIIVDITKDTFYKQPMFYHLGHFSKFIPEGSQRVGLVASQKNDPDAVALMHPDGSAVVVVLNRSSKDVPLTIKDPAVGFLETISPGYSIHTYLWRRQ
Format: cell-based
In short: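 Patient fibroblasts homozygous for p.L444P (GM08760A), grown in DMEM/10% FBS and exposed to compound for 4 days. Intact cells then given 4-MU-β-D-glucopyranoside in 0.1 M acetate pH 4, 1 h, 37 °C; stopped at pH 10.7, 4-MU fluorescence ex 340/em 460. Value is fold increase over untreated cells; binned at 6–50 μM.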
For `COc1ccccc1Nc1cc(N)cc(C(=O)NC2Cc3ccccc3C2)n1.Cl` [Example 133, 4-amino-N-(2,3-dihydro-1H-inden-2-yl)-6-((2-methoxyphenyl)amino)picolinamide hydrochloride], the “Range: increase in enzyme activity in comparison with non-treated cells (Enzyme activity assay for compounds of Examples 33-141)” value was “C (Increase in comparison with non-treated of 1.2-1.7 fold is shown as C)”.
`Cl.Nc1cc(Nc2cccc(F)c2)nc(C(=O)Nc2ccccc2)c1` [Example 134, 4-Amino-6-((3-fluorophenyl)amino)-N-phenylpicolinamide hydrochloride] was tested, and the “Range: increase in enzyme activity in comparison with non-treated cells (Enzyme activity assay for compounds of Examples 33-141)” value was “A (Increase in comparison with non-treated of >2.0 fold is shown as A)”.
For `COc1cccc(Nc2cc(N)cc(C(=O)Nc3ccccc3)n2)c1.Cl` [Example 135, 4-Amino-6-((3-methoxyphenyl)amino)-N-phenylpicolinamide hydrochloride], the “Range: increase in enzyme activity in comparison with non-treated cells (Enzyme activity assay for compounds of Examples 33-141)” value was “A (Increase in comparison with non-treated of >2.0 fold is shown as A)”.
With `Cc1cccc(NC(=O)c2cc(N)cc(Nc3cccc(F)c3)n2)c1.Cl` [Example 136, 4-Amino-6-((3-fluorophenyl)amino)-N-(m-tolyl)picolinamide hydrochloride] the “Range: increase in enzyme activity in comparison with non-treated cells (Enzyme activity assay for compounds of Examples 33-141)” value was “A (Increase in comparison with non-treated of >2.0 fold is shown as A)”.
In the case of `Cl.Nc1cc(Nc2cccc(F)c2)nc(C(=O)NC2Cc3ccccc3C2)c1` [Example 138, 4-Amino-N-(2,3-dihydro-1H-inden-2-yl)-6-((3-fluorophenyl)amino)picolinamide hydrochloride], the “Range: increase in enzyme activity in comparison with non-treated cells (Enzyme activity assay for compounds of Examples 33-141)” value is reported as “A (Increase in comparison with non-treated of >2.0 fold is shown as A)”.
For `Cl.Nc1cc(Nc2ccccc2F)nc(C(=O)NC2Cc3ccccc3C2)c1` [Example 139, 4-Amino-N-(2,3-dihydro-1H-inden-2-yl)-6-((2-fluorophenyl)amino)picolinamide hydrochloride], the “Range: increase in enzyme activity in comparison with non-treated cells (Enzyme activity assay for compounds of Examples 33-141)” value was “C (Increase in comparison with non-treated of 1.2-1.7 fold is shown as C)”.
With `Cl.Nc1cc(Nc2cc(F)cc(F)c2)nc(C(=O)NC2Cc3ccccc3C2)c1` [Example 140, 4-Amino-6-((3,5-difluorophenyl)amino)-N-(2,3-dihydro-1H-inden-2-yl)picolinamide hydrochloride] the “Range: increase in enzyme activity in comparison with non-treated cells (Enzyme activity assay for compounds of Examples 33-141)” value was “A (Increase in comparison with non-treated of >2.0 fold is shown as A)”.
`COc1cccc(Nc2cc(N)nc(C(=O)NC3Cc4ccccc4C3)c2)c1.Cl` [Example 141, 6-Amino-N-(2,3-dihydro-1H-inden-2-yl)-4-((3-methoxyphenyl)amino)picolinamide hydrochloride] was tested, and the “Range: increase in enzyme activity in comparison with non-treated cells (Enzyme activity assay for compounds of Examples 33-141)” value was “C (Increase in comparison with non-treated of 1.2-1.7 fold is shown as C)”.

From patent publication US12661342B2, “Heteroaryl compounds and therapeutic uses thereof in conditions associated with the alteration of the activity of beta-glucocerebrosidase” (GT GAIN THERAPEUTICS SA, priority 2019, dated 2026)
